The nature of this data set: Human HepG2 cell viability assay in 384 well format. It is filed as toxicity, cell-based. Details: dose 125 nL, time 70.5 hour; concentration not given beside the values. As to conditions: HepG2 cells, read-out: Inhibition.
`Cc1ccoc1CNCc1nnc2n1CC(C(F)(F)F)CC2` (stereo unspecified): the cytotoxicity at 70.5 h was -12.1%.
Regarding `CN(C)c1nccc(N(C)Cc2ncnn2C)n1`, the cytotoxicity at 70.5 h was -3.04%.
On to `Cc1cnn(CC2CN(CCc3ccncc3)CCO2)c1` (stereo unspecified), for which the cytotoxicity at 70.5 h turned out to be 0.973%.
Take `CCc1ccc(C(O)CN2CCN(c3cccc(OC)c3)CC2)cc1` (stereo unspecified): the cytotoxicity at 70.5 h is -29.4%.
Regarding `Cc1nc(NCc2coc(-c3ccccc3)n2)cc(C2CCNCC2)n1`, the cytotoxicity at 70.5 h was -2.73%.
Turning to `CC(C)(C)CNC(=O)c1ccc(C(=O)O)cn1`, the cytotoxicity at 70.5 h was found to be 23.3%.
For the compound `COc1ccccc1C(=O)N1CCNCC1C(N)=O` (stereo unspecified), the cytotoxicity at 70.5 h is -2.25%.
In the case of `CC[C@@H](C)[C@@H](N)C(=O)Nc1cccc(-c2cnc(N(C)CCO)nc2)c1` it was -6.3%; in that of `COc1ccc2[nH]cc(CCNC(=O)C3CCCN(C(C)=O)C3)c2c1` (stereo unspecified), -9.73%.
Turning to `COc1ccc(CNC(=O)N2CCN(C)[C@@H]3CS(=O)(=O)C[C@@H]32)cc1`, the cytotoxicity at 70.5 h was -1.34%.
Consider `O=C(c1cccs1)N1CC(C(=O)N2CCCC2)C2(CCOCC2)C1` (stereo unspecified), for which the cytotoxicity at 70.5 h was determined as 0.22%.
To `CSc1ccc(CN(C)Cc2noc(C(C)(C)C)n2)cc1` belongs -6.11%.
To `Cc1ccc(CC(=O)N2CCCC(n3nc(C)cc3C)C2)cn1` (stereo unspecified) belongs -9.71%; to `Cc1ncsc1CCC(=O)N1CCCC1c1cccnc1` (stereo unspecified), -6.95%; to `C[C@@H]1CN(Cc2cccc(F)c2)C[C@]12CCN(Cc1cccnc1)C2=O`, -10.4%.
Consider `CCN1CCN(Cc2c(-c3ccco3)[nH]c3ncccc23)CC1`, for which the cytotoxicity at 70.5 h is -3.87%.
`CNc1cc2c(nn1)CCN(C(=O)c1ccoc1)C2`: the cytotoxicity at 70.5 h is -6.62%.
Consider `O=C(CN(CC1CCC1)CC(F)(F)F)N1CCCC1`, for which the cytotoxicity at 70.5 h was -6.18%.
To `Cc1ccc(N2CCC3(CC2)CC(OCC(=O)N(C)C)CO3)nn1` (stereo unspecified) belongs -8.76%; to `CCNC(=O)C1CCN(Cc2ccc(C(=O)Nc3cnns3)cc2)C1` (stereo unspecified), 1.67%.
Regarding `CCc1nccn1-c1cccc(C2CCCN2S(=O)(=O)N(C)C)n1` (stereo unspecified), the cytotoxicity at 70.5 h is -7.54%.
Turning to `CC(C)N1CCC(CC(=O)N(C)C(C)c2cncs2)CC1` (stereo unspecified), the cytotoxicity at 70.5 h was -15.3%.
In the case of `CCCc1nnc(N2CCN(c3ccccc3Cl)CC2)o1` it was -0.178%.
As for `Cc1ccc(C2CCCN2S(=O)(=O)N(C)CCc2ccccn2)o1` (stereo unspecified), the cytotoxicity at 70.5 h worked out at 4.42%.
As for `CCc1cc(NCCCOC2CCCC2)ncn1`, the cytotoxicity at 70.5 h is -10.7%.
As for `CCS(=O)(=O)N1CCc2c(cccc2NCc2nc(C)c(C)o2)C1`, the cytotoxicity at 70.5 h is 19.1%.
In the case of `Cc1nc(C)n(CC2CN(CCc3ccncc3)CCO2)n1` (stereo unspecified) it was -0.163%; in that of `CN(CC(=O)N1CCN(c2ccccc2F)CC1)c1cnccn1`, -18.2%; in that of `O=S(=O)(C1CC1)N1CCc2ncnc(-c3ccc(F)cc3)c2CC1`, 0.906%.
In the case of `CCOCc1nc(-c2ccc(F)cc2Cl)n(C2CCN(C)CC2)n1`, the cytotoxicity at 70.5 h was -17.9%.
For the compound `O=C(NCCSCc1ccc(Br)s1)C1CCCN(c2cnccn2)C1` (stereo unspecified), the cytotoxicity at 70.5 h came to 10.7%.
For the compound `Cc1ccc(S(=O)(=O)N(C)CC(C)O)c(F)c1` (stereo unspecified), the cytotoxicity at 70.5 h came to 21.4%.
For the compound `CC(NC(=O)NCC1(c2ccccc2)CCC1)c1nncn1C` (stereo unspecified), the cytotoxicity at 70.5 h is -16.7%.
In the case of `Cc1nc(-c2ccccc2)cc(C2CCNCC2)n1`, the cytotoxicity at 70.5 h amounted to 7.58%.
On to `COCCCNC(=O)C(C)n1nc(-c2ccco2)cc(N)c1=O` (stereo unspecified), for which the cytotoxicity at 70.5 h is -6.27%.
For the compound `CS(=O)(=O)CCC(=O)Nc1cc(Cl)c(Cl)cn1`, the cytotoxicity at 70.5 h turned out to be 26.6%.
To `COC(=O)CC1CCCCN1CC(=O)Nc1cc(F)ccc1F` (stereo unspecified) belongs -4.9%.
On to `O=C1COc2cc(C(=O)NS(=O)(=O)c3ccccc3F)ccc2N1`, for which the cytotoxicity at 70.5 h is 21.7%.
Take `CC(CN1CCC2(CC1)c1nc[nH]c1CCN2S(C)(=O)=O)C(F)(F)F` (stereo unspecified): the cytotoxicity at 70.5 h is -1.86%.
Regarding `O=C(NCCNc1cnccn1)N1CCCC(N2CCCC2)C1` (stereo unspecified), the cytotoxicity at 70.5 h was determined as 3.31%.
As to `CN(Cc1ccccc1)C(=O)CN1CCCCC1Cn1cncn1` (stereo unspecified), the cytotoxicity at 70.5 h is 1.47%.
To `COc1cccc(-c2cc(NCc3nccn3C)n(C)n2)c1` belongs -6.65%; to `Cc1oc(C(=O)O)cc1S(=O)(=O)Nc1cc(Br)ccc1F`, -7.4%.
Consider `COCCN1CCC2(CC1)CN(C(C)=O)c1ccc(C)cc12`, for which the cytotoxicity at 70.5 h is 4.91%.
Consider `Cc1nc(C)n(CC2CCCN(Cc3nc(-c4ccco4)no3)C2)n1` (stereo unspecified), for which the cytotoxicity at 70.5 h is -3.87%.
As for `O=C1COC[C@H]([C@H](O)c2ccc(NC(=O)c3ccco3)cc2)N1`, the cytotoxicity at 70.5 h was -0.619%.
Regarding `CCCn1nc(C(=O)N(C)Cc2cnn(C)c2)ccc1=O`, the cytotoxicity at 70.5 h worked out at 0.0623%.
Turning to `CCOC(=O)N1CCN(c2nc(NC3CC3)c3ccccc3n2)CC1`, the cytotoxicity at 70.5 h is 3.06%.
With `COc1ccc2c(c1)CC(NCc1cccc(OCC(N)=O)c1)CC2` (stereo unspecified), the cytotoxicity at 70.5 h was -10.5%.
As for `O=C(NCc1ccco1)[C@@]12CCO[C@@H]1CCN(c1ncccn1)C2`, the cytotoxicity at 70.5 h is -2.22%.
To `CCn1nc(C(=O)N2CCNCC2C(=O)Nc2ccc(C)nc2)cc1C` (stereo unspecified) belongs 3.8%; to `Cc1ccc(C(CNCc2ccc(C#N)cc2)N2CCOCC2)s1` (stereo unspecified), -3.96%.
Regarding `Cc1cc(C(=O)O)cc(S(=O)(=O)Nc2ccc3c(c2)OCCCO3)c1C`, the cytotoxicity at 70.5 h is -5.74%.
For the compound `O=C(Cc1ccc(S(=O)(=O)C(F)F)cc1)N1CCC1`, the cytotoxicity at 70.5 h was -10.6%.
To `CC(NCC(=O)Nc1ccc(N2CCCCCC2)cc1)c1cccs1` (stereo unspecified) belongs -8.9%; to `Cc1ccccc1N1CCN(C(=O)c2ncc(F)cc2F)C(C)C1` (stereo unspecified), -3.38%.
`CCN1C[C@@H](C(=O)O)[C@H](c2cccc(OC)c2)C1`: the cytotoxicity at 70.5 h turned out to be 5.16%.
In the case of `CC(NCc1cccc2c1OCCO2)c1cc2c(cc1Br)OCCO2` (stereo unspecified) it was -7.55%; in that of `COc1cccc(-c2nc(C)c(C(=O)N[C@@H](CC(C)C)C(=O)O)s2)c1`, -18.1%; in that of `Cc1ccc(-c2noc(C3CCN3C(=O)c3c(C)noc3C)n2)s1` (stereo unspecified), -3.14%.
In the case of `c1ccc2c(N3CCCCC3)cnnc2c1` it was -6.45%.
For `Cc1c(CN2CCC(C(=O)O)(n3cccn3)CC2)oc2ccccc12`, the cytotoxicity at 70.5 h is -2.29%.
Take `c1cnc(N2Cc3nccn3CC(COc3cccnc3)C2)nc1` (stereo unspecified): the cytotoxicity at 70.5 h is -8.37%.
Take `Cc1noc(CCNS(=O)(=O)N2CCCC2c2ccc(C)o2)n1` (stereo unspecified): the cytotoxicity at 70.5 h was found to be 9.73%.
In the case of `CN(C(=O)Nc1ccncc1)C1CCN(c2ccccc2)C1=O` (stereo unspecified) it was -11.8%; in that of `CCOCC(=O)N1CCn2cc(CN(C)Cc3ccco3)nc2C1`, -0.359%.
As to `C[C@@H]1CN(c2nc(N)nc3c2CCC3)C[C@]1(C)O`, the cytotoxicity at 70.5 h was determined as 1.03%.
With `CC(=O)N1CC[C@H]2C(=O)N(c3ccsc3)CCO[C@H]2C1`, the cytotoxicity at 70.5 h was -2.46%.
As for `CC(C)N(C)CC(=O)N(C)C(c1cccc(F)c1)c1ccccn1` (stereo unspecified), the cytotoxicity at 70.5 h was 40.9%.
To `CC(=O)Nc1cccc(OCCNC(=O)N(C)Cc2ccccc2)c1` belongs 3.43%; to `CC(=O)c1cc(CN2C[C@@H](N(C)C)[C@H](C(C)C)C2)cs1`, 8.63%.
Regarding `Cc1ccc2nc(CN(C)Cc3n[nH]c4c3CCCCC4)[nH]c2c1C`, the cytotoxicity at 70.5 h was -3.25%.
In the case of `Cn1cc(-c2c(C#N)c(N)nc3c2CCc2[nH]ccc2-3)cn1`, the cytotoxicity at 70.5 h turned out to be 17.1%.
In the case of `CC1CN(C)CCN1C(=O)Cc1cc(Cl)c2c(c1)OCCO2` (stereo unspecified), the cytotoxicity at 70.5 h is -6.51%.
For the compound `CNC(=O)C1(CCCc2ccncc2)CCCN1` (stereo unspecified), the cytotoxicity at 70.5 h is -7.77%.
On to `CNS(=O)(=O)CC1CCCN1c1ccc(Br)cn1` (stereo unspecified), for which the cytotoxicity at 70.5 h was -0.632%.
For `CC(O)CN1CCC(CNCc2cccc(Cl)c2)CC1` (stereo unspecified), the cytotoxicity at 70.5 h was found to be 12.3%.
Consider `FC(F)CN1CCOC(Cn2cccn2)C1` (stereo unspecified), for which the cytotoxicity at 70.5 h was -3.37%.
Regarding `OC1CCN(c2cnnc3ccccc23)CC1`, the cytotoxicity at 70.5 h amounted to 30.5%.
Turning to `CS(=O)(=O)NC1CCN(C(=O)NCCc2ccccn2)CC1`, the cytotoxicity at 70.5 h was 13.9%.
To `c1ccc2c(c1)N(CC1CCOC1)CC21CCN(c2cnccn2)CC1` (stereo unspecified) belongs -0.723%; to `OC(CN1CCOCC1)c1ccc(Br)cc1` (stereo unspecified), -4.1%.
Take `CN(Cc1cnn(C)c1)C(=O)NCC1CCS(=O)(=O)C1` (stereo unspecified): the cytotoxicity at 70.5 h was -4.43%.
Turning to `CSc1ncccc1C(=O)N(C)C(C)Cc1ccccn1` (stereo unspecified), the cytotoxicity at 70.5 h was -18.1%.
For the compound `Cc1cnc(Nc2nccnc2C2CCN(C)CC2)s1`, the cytotoxicity at 70.5 h is -19.6%.
For the compound `Cc1cccc(C(=O)Oc2cc(=O)n3cccc(C)c3n2)c1`, the cytotoxicity at 70.5 h is -5.1%.
On to `CN1Cc2[nH]nc(COCC3CC3)c2C1`, for which the cytotoxicity at 70.5 h is -11.3%.
For `CNCc1ccc(Oc2cncc(C)n2)cc1`, the cytotoxicity at 70.5 h was -12.9%.
Consider `Cc1nc(CCN)cc(N2CCCN(C(=O)c3ccco3)CC2)n1`, for which the cytotoxicity at 70.5 h is -4.43%.
As to `CN(C)C[C@]12COC[C@H]1CN(C(=O)CCc1ccccc1)C2`, the cytotoxicity at 70.5 h was -11.8%.
In the case of `CCOc1ccc(CN(CCOC)C(=O)c2ccncc2Cl)cc1`, the cytotoxicity at 70.5 h is -3.6%.
In the case of `Nc1nc2nc(C3CCN(C(=O)c4cscn4)C3)ccc2s1` (stereo unspecified), the cytotoxicity at 70.5 h was -5.85%.
As to `O=C1O[C@@H]2CN(Cc3cccnc3)C[C@@H]2N1CCCN1CCOCC1`, the cytotoxicity at 70.5 h is -1.95%.
In the case of `Cn1cc(CNC2CCc3c(ccc(=O)n3C)C2)cn1` (stereo unspecified), the cytotoxicity at 70.5 h was -2.72%.
To `Cc1cc(N(C)C)nc(N2CCCC2c2cc(C)on2)n1` (stereo unspecified) belongs -1.73%; to `CC(C)(C)c1noc(CCC(=O)N2CCNC(=O)C2)n1`, 7.96%; to `Cc1nn2c(NCC(=O)NC3CC3)cc(-c3ccccc3)nc2c1C`, -2.36%.
To `O=C(c1noc2c1CCCC2)N1CCCC(c2nccs2)C1` (stereo unspecified) belongs -3.76%.
Regarding `COc1ccc(C(=O)N2CCC(Nc3ccc(C)nn3)CC2)cc1`, the cytotoxicity at 70.5 h came to 0.696%.
For the compound `CCn1nc(C)c(CN(CCCOC)Cc2ccccn2)c1C`, the cytotoxicity at 70.5 h amounted to 8.89%.
For `CSCCC(=O)N1CCN(CC(C)(C)O)CC1`, the cytotoxicity at 70.5 h is -13.7%.

The record behind these values is ChEMBL document CHEMBL3507680, “University of Dundee, Gates Library screen for HepG2 cell viability”.
